In US5480867A, “Glucagon analogs with serine replacements” (The Rockefeller University, priority 1994, dated 1996):
Residues, ends and D or L forms follow the SMILES beside them. No end group written: not given here.

Legend:
[1] = tested on: adenylate cyclase; details: for % Relative Activity: adenylate cyclase activity relative to glucagon, liver membranes, analogs measured as amides; for pA2: negative logarithm of antagonist concentration reducing response to 1 unit agonist to that of 0.5 unit, measured as amides
Experimental: Adenylate Cyclase Assay. The assay on liver membranes was performed according to Salomon et al. [Salomon, Y., Londos, C. & rodgell, M. Anal. Biochem. 58, 541, 548 (1974)]. The released cAMP was mixed with [8-^3 H]cAMP measured with a high affinity cAMP binding protein.
The purpose of the adenylate cyclase assay is to measure the ability of the compound under test to stimulate the activity of adenylate cyclase. The assays are used to measure relative potency, maximum activity and inhibition index.
The inhibition index, defined above, was determined from adenylate cyclase assays by two different protocols.
1. A glucagon standard curve for cAMP vs glucagon concentration was established. Then another glucagon assay curve was measured in the presence of a constant amount of antagonist.
2. A series of tubes were set up containing an amount of glucagon which will produce 90% of maximum response. Increasing amounts of antagonist were then added and the concentration that reduced the response to 45% of maximum was determined.

[2] = biological target: glucagon receptor (Homo sapiens, UniProt P47871); details: background statement; cited from earlier work
[3] = tested on: adenylate cyclase; details: background statement; cited from earlier work

glucagon receptor, sequence (P47871 26-477, species assumed): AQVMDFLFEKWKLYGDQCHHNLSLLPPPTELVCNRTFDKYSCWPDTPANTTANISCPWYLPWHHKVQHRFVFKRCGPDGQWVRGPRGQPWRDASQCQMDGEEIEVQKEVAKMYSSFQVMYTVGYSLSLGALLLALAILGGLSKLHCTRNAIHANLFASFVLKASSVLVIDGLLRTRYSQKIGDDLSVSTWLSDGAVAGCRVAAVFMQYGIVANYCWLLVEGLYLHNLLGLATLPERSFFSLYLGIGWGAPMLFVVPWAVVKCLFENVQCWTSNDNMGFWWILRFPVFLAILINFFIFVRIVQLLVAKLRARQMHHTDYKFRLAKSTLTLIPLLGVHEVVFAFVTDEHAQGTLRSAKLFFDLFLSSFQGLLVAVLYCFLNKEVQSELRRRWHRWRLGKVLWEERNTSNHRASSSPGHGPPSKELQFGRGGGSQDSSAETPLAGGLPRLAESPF

## CCCC[C@H](NC(=O)[C@H](CO)NC(=O)[C@@H](NC(=O)[C@H](Cc1ccccc1)NC(=O)[C@@H](NC(=O)CNC(=O)[C@H](CCC(N)=O)NC(=O)[C@H](CO)NC(=O)[C@@H](N)Cc1c[nH]cn1)[C@@H](C)O)[C@@H](C)O)C(=O)N[C@@H](Cc1ccc(O)cc1)C(=O)N[C@@H](C)C(=O)N[C@@H](CCCCN)C(=O)N[C@@H](Cc1ccc(O)cc1)C(=O)N[C@@H](CC(C)C)C(=O)N[C@@H](CC(=O)O)C(=O)N[C@@H](CCC(N)=O)C(=O)N[C@@H](CCCNC(=N)N)C(=O)N[C@@H](CCCNC(=N)N)C(=O)N[C@@H](C)C(=O)N[C@@H](CCC(N)=O)C(=O)N[C@@H](CC(=O)O)C(=O)N[C@@H](Cc1ccccc1)C(=O)N[C@H](C(=O)N[C@@H](CCC(N)=O)C(=O)N[C@@H](Cc1c[nH]c2ccccc12)C(=O)N[C@@H](CC(C)C)C(=O)N[C@@H](CCSC)C(=O)N[C@@H](CC(N)=O)C(=O)N[C@H](C(N)=O)[C@@H](C)O)C(C)C [Analog 1, Nle^9 Ala^11 Gln^16] (HELM PEPTIDE1{H.S.Q.G.T.F.T.S.[Nle].Y.A.K.Y.L.D.Q.R.R.A.Q.D.F.V.Q.W.L.M.N.T.[am]}$$$$V2.0)
[1]
  % Relative Activity: 0.003%
  pA2: 8.7

## CCCC[C@H](NC(=O)[C@H](CO)NC(=O)[C@@H](NC(=O)[C@H](Cc1ccccc1)NC(=O)[C@@H](NC(=O)CNC(=O)[C@H](CCC(N)=O)NC(=O)[C@@H](N)CO)[C@@H](C)O)[C@@H](C)O)C(=O)N[C@@H](Cc1ccc(O)cc1)C(=O)N[C@@H](CO)C(=O)N[C@@H](CCCCN)C(=O)N[C@@H](Cc1ccc(O)cc1)C(=O)N[C@@H](CC(C)C)C(=O)N[C@@H](CC(=O)O)C(=O)N[C@@H](C)C(=O)N[C@@H](CCCNC(=N)N)C(=O)N[C@@H](CCCNC(=N)N)C(=O)N[C@@H](C)C(=O)N[C@@H](CCC(N)=O)C(=O)N[C@@H](CC(=O)O)C(=O)N[C@@H](Cc1ccccc1)C(=O)N[C@H](C(=O)N[C@@H](CCC(N)=O)C(=O)N[C@@H](Cc1c[nH]c2ccccc12)C(=O)N[C@@H](CC(C)C)C(=O)N[C@@H](CCSC)C(=O)N[C@@H](CC(N)=O)C(=O)N[C@H](C(N)=O)[C@@H](C)O)C(C)C [Analog 2, des-His^1 Nle^9 Ala^16] (HELM PEPTIDE1{S.Q.G.T.F.T.S.[Nle].Y.S.K.Y.L.D.A.R.R.A.Q.D.F.V.Q.W.L.M.N.T.[am]}$$$$V2.0)
[1]
  % Relative Activity: 0.001%
  pA2: 8.4

## CCCC[C@H](NC(=O)[C@H](CO)NC(=O)[C@@H](NC(=O)[C@H](Cc1ccccc1)NC(=O)[C@@H](NC(=O)CNC(=O)[C@H](CCC(N)=O)NC(=O)[C@@H](N)CO)[C@@H](C)O)[C@@H](C)O)C(=O)N[C@@H](Cc1ccc(O)cc1)C(=O)N[C@@H](C)C(=O)N[C@@H](CCCCN)C(=O)N[C@@H](Cc1ccc(O)cc1)C(=O)N[C@@H](CC(C)C)C(=O)N[C@@H](CC(=O)O)C(=O)N[C@@H](C)C(=O)N[C@@H](CCCNC(=N)N)C(=O)N[C@@H](CCCNC(=N)N)C(=O)N[C@@H](C)C(=O)N[C@@H](CCC(N)=O)C(=O)N[C@@H](CC(=O)O)C(=O)N[C@@H](Cc1ccccc1)C(=O)N[C@H](C(=O)N[C@@H](CCC(N)=O)C(=O)N[C@@H](Cc1c[nH]c2ccccc12)C(=O)N[C@@H](CC(C)C)C(=O)N[C@@H](CCSC)C(=O)N[C@@H](CC(N)=O)C(=O)N[C@H](C(N)=O)[C@@H](C)O)C(C)C [Analog 3, des-His^1 Nle^9 Ala^11 Ala^16] (HELM PEPTIDE1{S.Q.G.T.F.T.S.[Nle].Y.A.K.Y.L.D.A.R.R.A.Q.D.F.V.Q.W.L.M.N.T.[am]}$$$$V2.0)
[1]
  % Relative Activity: 0.0043%
  pA2: 8.4

## CCCC[C@H](NC(=O)[C@H](CO)NC(=O)[C@@H](NC(=O)[C@H](Cc1ccccc1)NC(=O)[C@@H](NC(=O)CNC(=O)[C@H](CCC(N)=O)NC(=O)[C@@H](N)CO)[C@@H](C)O)[C@@H](C)O)C(=O)N[C@@H](Cc1ccc(O)cc1)C(=O)N[C@@H](C)C(=O)N[C@@H](CCCCN)C(=O)N[C@@H](Cc1ccc(O)cc1)C(=O)N[C@@H](CC(C)C)C(=O)N[C@@H](CC(=O)O)C(=O)N[C@@H](CCC(N)=O)C(=O)N[C@@H](CCCNC(=N)N)C(=O)N[C@@H](CCCNC(=N)N)C(=O)N[C@@H](C)C(=O)N[C@@H](CCC(N)=O)C(=O)N[C@@H](CC(=O)O)C(=O)N[C@@H](Cc1ccccc1)C(=O)N[C@H](C(=O)N[C@@H](CCC(N)=O)C(=O)N[C@@H](Cc1c[nH]c2ccccc12)C(=O)N[C@@H](CC(C)C)C(=O)N[C@@H](CCSC)C(=O)N[C@@H](CC(N)=O)C(=O)N[C@H](C(N)=O)[C@@H](C)O)C(C)C [Analog 4, des-His^1 Nle^9 Ala^11 Gln^16] (HELM PEPTIDE1{S.Q.G.T.F.T.S.[Nle].Y.A.K.Y.L.D.Q.R.R.A.Q.D.F.V.Q.W.L.M.N.T.[am]}$$$$V2.0)
[1]
  % Relative Activity: 0.0011%
  pA2: 8.4

## Nα-trinitrophenyl [12-homoarginine]glucagon
[2]
  binding to the glucagon receptor: does bind to the glucagon receptor
[3]
  activation of adenylate cyclase: without significant activation of adenylate cyclase

## SQGTFTSEYAKYLDARRAQEFVQWLMNT-NH2 [Analog 5, des-His^1 Glu^9 Ala^11 Ala^16 Glu^21]
[1]
  % Relative Activity: 0.016%
  pA2: 8.5
